By IC50 is commonly meant the concentration that gives 50% inhibition.

SUV420H1 enzyme, sequence (Q4FZB7 whole entry): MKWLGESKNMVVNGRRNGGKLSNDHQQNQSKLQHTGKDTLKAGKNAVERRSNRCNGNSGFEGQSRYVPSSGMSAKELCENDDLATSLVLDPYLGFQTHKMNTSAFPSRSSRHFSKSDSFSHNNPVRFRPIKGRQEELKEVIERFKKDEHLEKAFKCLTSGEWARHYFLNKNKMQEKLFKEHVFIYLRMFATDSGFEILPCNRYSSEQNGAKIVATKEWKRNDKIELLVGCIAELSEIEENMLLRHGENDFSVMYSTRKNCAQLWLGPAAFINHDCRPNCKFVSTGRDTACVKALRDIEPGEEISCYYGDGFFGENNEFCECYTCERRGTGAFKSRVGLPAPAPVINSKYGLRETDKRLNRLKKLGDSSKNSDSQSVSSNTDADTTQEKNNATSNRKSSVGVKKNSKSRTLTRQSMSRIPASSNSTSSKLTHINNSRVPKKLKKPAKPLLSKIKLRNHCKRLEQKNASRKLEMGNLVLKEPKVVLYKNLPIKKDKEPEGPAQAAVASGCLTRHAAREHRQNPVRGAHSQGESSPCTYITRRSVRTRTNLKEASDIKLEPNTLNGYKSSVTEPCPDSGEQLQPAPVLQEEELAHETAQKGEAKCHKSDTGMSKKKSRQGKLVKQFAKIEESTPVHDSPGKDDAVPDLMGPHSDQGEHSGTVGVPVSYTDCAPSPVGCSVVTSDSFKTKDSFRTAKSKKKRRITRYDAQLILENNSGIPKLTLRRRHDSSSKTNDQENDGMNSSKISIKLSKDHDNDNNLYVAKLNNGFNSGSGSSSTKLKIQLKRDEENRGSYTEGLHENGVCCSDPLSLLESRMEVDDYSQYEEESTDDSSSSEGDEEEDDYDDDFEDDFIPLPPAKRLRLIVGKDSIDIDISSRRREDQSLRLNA

In the experiment the target is SUV420H1 enzyme (Homo sapiens, UniProt Q4FZB7). The experiment is described as follows: TR-FRET SAH SUV420H1 enzyme inhibition assay. The settings on record: Histone Peptide H4(8-30)me1 and SAM, overnight at room temp, TR-FRET detection of SAH, read-out: TR-FRET SAH_SUV420H1 IC50. It counts as biochemical. In short, it runs like this:
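SUV420H1 (90 nM) preincubated 30 min with compound (3-fold dilutions, 50 to 0.00075 μM), then H4(8-30)me1 peptide 5 nM and SAM 4 nM added, overnight at room temp. SAH product detected by TR-FRET with Tb anti-SAH antibody and Oregon Green-SAH in RIPA buffer, 4 h; IC50 from Hill fit, asymptotes fixed 0-100%.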
For orientation: In TR-FRET formats the signal depends on donor and acceptor labels being close together.
As to `N#Cc1ccc(C(=O)NCc2cc3cc(Cl)cc(Cn4cnc5c(N)ncnc54)c3[nH]2)cc1` [Example 272, N-({7-[(6-amino-9H-purin-9-yl)methyl]-5-chloro-1H-indol-2-yl}methyl)-4-cyanobenzamide], the IC50 worked out at 378 nM.
With `CC(C)CCC(=O)NCc1cc2cc(Cl)cc(Cn3cnc4c(N)ncnc43)c2[nH]1` [Example 105, N-({7-[(6-amino-9H-purin-9-yl)methyl]-5-chloro-1H-indol-2-yl}methyl)-4-methylpentanamide], the IC50 is 8170 nM.
Under `C=Cc1ccc2cc(CN)[nH]c2c1Cn1cnc2c(N)ncnc21` [Example 59, 9-{[2-(aminomethyl)-6-ethenyl-1H-indol-7-yl]methyl}-9H-purin-6-amine] stands 7510 nM; under `CCCCc1nc2cc(C(=O)NCc3cc4cc(Cl)cc(Cn5cnc6c(N)ncnc65)c4[nH]3)ccc2o1` [Example 379, N-({7-[(6-amino-9H-purin-9-yl)methyl]-5-chloro-1H-indol-2-yl}methyl)-2-butyl-1,3-benzoxazole-5-carboxamide], 765 nM; under `Cc1nc2ccc(C(=O)NCc3cc4cc(Cl)cc(Cn5cnc6c(N)ncnc65)c4[nH]3)cc2o1` [Example 359, N-({7-[(6-amino-9H-purin-9-yl)methyl]-5-chloro-1H-indol-2-yl}methyl)-2-methyl-1,3-benzoxazole-6-carboxamide], 4280 nM.
For the compound `Nc1ncnc2c1ncn2Cc1cc(Cl)cc2cc(CNC(=O)c3cnn4c3CCCC4)[nH]c12` [Example 192, N-({7-[(6-amino-9H-purin-9-yl)methyl]-5-chloro-1H-indol-2-yl}methyl)-4,5,6,7-tetrahydropyrazolo[1,5-a]pyridine-3-carboxamide], the IC50 was 2140 nM.
As to `CCc1nc2ccc(C(=O)NCc3cc4cc(Cl)cc(Cn5cnc6c(N)ncnc65)c4[nH]3)cc2[nH]1` [Example 368, N-({7-[(6-amino-9H-purin-9-yl)methyl]-5-chloro-1H-indol-2-yl}methyl)-2-ethyl-1H-benzimidazole-6-carboxamide], the IC50 was found to be 7610 nM.
Under `Nc1ncnc2c1ncn2Cc1cc(Cl)cc2cc(CNC(=O)c3cn[nH]c3)[nH]c12` [Example 143, N-({7-[(6-amino-9H-purin-9-yl)methyl]-5-chloro-1H-indol-2-yl}methyl)-1H-pyrazole-4-carboxamide] stands 24000 nM.
Under `COc1cc(C#N)ccc1CNCc1cc2cc(Cl)cc(Cn3cnc4c(N)ncnc43)c2[nH]1` [Example 311, 4-{[({7-[(6-amino-9H-purin-9-yl)methyl]-5-chloro-1H-indol-2-yl}methyl)amino]methyl}-3-methoxybenzonitrile] stands 3240 nM; under `Nc1ncnc2c1ncn2Cc1cc(Cl)cc2cc(CN(CC(=O)O)CC(=O)O)[nH]c12` [Example 101, 2,2′-[({7-[(6-amino-9H-purin-9-yl)methyl]-5-chloro-1H-indol-2-yl}methyl)imino]diacetic acid], > 50000 nM.
For `CC1CCC(C(=O)NCc2cc3cc(Cl)cc(Cn4cnc5c(N)ncnc54)c3[nH]2)CC1` (stereo not shown) [Example 130, N-({7-[(6-amino-9H-purin-9-yl)methyl]-5-chloro-1H-indol-2-yl}methyl)-4-methylcyclohexanecarboxamide], the IC50 came to 2390 nM.
Turning to `Cc1noc(C)c1C(=O)NCc1cc2cc(-c3ccc(S(N)(=O)=O)cc3)cc(Cn3cnc4c(N)ncnc43)c2[nH]1` [Example 166, N-({7-[(6-amino-9H-purin-9-yl)methyl]-5-(4-sulfamoylphenyl)-1H-indol-2-yl}methyl)-3,5-dimethyl-1,2-oxazole-4-carboxamide], the IC50 came out at 88.9 nM.
Under `NCc1cc2c(-c3cccc(C(N)=O)c3)ccc(Cn3cnc4c(N)ncnc43)c2[nH]1` [Example 84, 3-{2-(aminomethyl)-7-[(6-amino-9H-purin-9-yl)methyl]-1H-indol-4-yl}benzamide] stands 569 nM.
Under `Cn1cccc1C(=O)NCc1cc2cc(Cl)cc(Cn3cnc4c(N)ncnc43)c2[nH]1` [Example 160, N-({7-[(6-amino-9H-purin-9-yl)methyl]-5-chloro-1H-indol-2-yl}methyl)-1-methyl-1H-pyrrole-2-carboxamide] stands 16800 nM; under `N#Cc1cccc(C(=O)NCc2cc3cc(Cl)cc(Cn4cnc5c(N)ncnc54)c3[nH]2)c1` [Example 273, N-({7-[(6-amino-9H-purin-9-yl)methyl]-5-chloro-1H-indol-2-yl}methyl)-3-cyanobenzamide], 1500 nM.
Consider `CCC(=O)NCc1cc2cc(Cl)cc(Cn3cnc4c(N)ncnc43)c2[nH]1` [Example 94, N-({7-[(6-amino-9H-purin-9-yl)methyl]-5-chloro-1H-indol-2-yl}methyl)propanamide], for which the IC50 amounted to 31100 nM.
Under `Cc1cccc(-c2cc(Cn3cnc4c(N)ncnc43)c3[nH]c(CN)cc3c2)c1` [Example 31, 9-{[2-(aminomethyl)-5-(3-methylphenyl)-1H-indol-7-yl]methyl}-9H-purin-6-amine] stands 901 nM.
Under `Nc1ncnc2c1ncn2Cc1cc(Cl)cc2cc(CNC(=O)c3ccccc3F)[nH]c12` [Example 225, N-({7-[(6-amino-9H-purin-9-yl)methyl]-5-chloro-1H-indol-2-yl}methyl)-2-fluorobenzamide] stands > 50000 nM; under `N#Cc1ccc(CNCc2cc3cc(Cl)cc(Cn4cnc5c(N)ncnc54)c3[nH]2)cc1` [Example 267, 4-{[({7-[(6-amino-9H-purin-9-yl)methyl]-5-chloro-1H-indol-2-yl}methyl)amino]methyl}benzonitrile], 3430 nM; under `Nc1ncnc2c1ncn2Cc1cc(Cl)cc2cc(CNC(=O)c3ccsc3)[nH]c12` [Example 145, N-({7-[(6-amino-9H-purin-9-yl)methyl]-5-chloro-1H-indol-2-yl}methyl)thiophene-3-carboxamide], 2400 nM.
Under `Cc1nnccc1C(=O)NCc1cc2cc(Cl)cc(Cn3cnc4c(N)ncnc43)c2[nH]1` [Example 199, N-({7-[(6-amino-9H-purin-9-yl)methyl]-5-chloro-1H-indol-2-yl}methyl)-3-methylpyridazine-4-carboxamide] stands 93.9 nM.
Turning to `NCc1cc2cc(-c3cccc(N4CCOCC4)c3)cc(Cn3cnc4c(N)ncnc43)c2[nH]1` [Example 52, 9-({2-(aminomethyl)-5-[3-(morpholin-4-yl)phenyl]-1H-indol-7-yl}methyl)-9H-purin-6-amine], the IC50 came to 244 nM.
Turning to `N#Cc1ccc(C(=O)NCc2cc3cc(C4=CCNCC4)cc(Cn4cnc5c(N)ncnc54)c3[nH]2)c(F)c1` [Example 286, N-({7-[(6-amino-9H-purin-9-yl)methyl]-5-(1,2,3,6-tetrahydropyridin-4-yl)-1H-indol-2-yl}methyl)-4-cyano-2-fluorobenzamide], the IC50 worked out at 41.1 nM.
With `NCc1cc2cc(C3=CCCC3)cc(Cn3cnc4c(N)ncnc43)c2[nH]1` [Example 11, 9-{[2-(aminomethyl)-5-(cyclopent-1-en-1-yl)-1H-indol-7-yl]methyl}-9H-purin-6-amine], the IC50 was 178 nM.
Under `CC(C)(C)OC(=O)CNCc1cc2cc(Cl)cc(Cn3cnc4c(N)ncnc43)c2[nH]1` [Example 106, tert-butyl [({7-[(6-amino-9H-purin-9-yl)methyl]-5-chloro-1H-indol-2-yl}methyl)amino]acetate] stands 3320 nM.

Values taken from US9932340B2, “Substituted indoles” (AbbVie Inc., priority 2014, dated 2018).
